From US7691838B2, “Method for treating diseases using HSP90-inhibiting agents in combination with antimitotics” (Kosan Biosciences Incorporated, priority 2003, dated 2010)
Read-outs that look alike come from different tables or passages of the source.

What was measured:
[1] = clinical trials, cited from earlier work
breast cancer cells = conditions: cited from earlier work
[2] = on administration; background statement; cited from earlier work
[3] = tested on: ErbB2-expressing cancer cells; conditions: ErbB2-expressing cancer cells in vitro; Citri et al. 2002; cited from earlier work
[4] = tested on: DLD-1 cells (human colorectal cancer cells); assay: MTS cell viability drug combination assay, combination index, DLD-1; format: cell-based; conditions: CI<1 synergism
Description: (§1) Human colon adenocarcinoma cell line, DLD-1, and human breast adenocarcinoma cell line, SKBr-3, were obtained from American Type Culture Collection (manassas, Va.). DLD-1 cells were maintained in RPMI 1640 medium supplemented with 10% fetal bovine serum, and SKBr-3 cells were cultured in McCoy's 5a medium supplemented with 10% fetal bovine serum. 17-DMAG and 17-AAG were obtained using published procedures. Other cytotoxic agents were purchased commercially from suppliers such as Sigma Chemical Co. (St. Louis, Mo.) and Sequoia Research Products (Oxford, UK).
(§2) Cells were seeded in duplicate in 96-well microtiter plates at a density of 5,000 cells per well and allowed to attach overnight. Cells were treated with 17-AAG or 17-DMAG and the corresponding antimitotic at varying concentrations, ranging from 0.5 picomolar (“pM”) to 50 micromolar (“μM”), for 3 days. Cell viability was determined using the MTS assay (Promega). For the drug combination assay, cells were seeded in duplicate in 96-well plates (5,000 cells/well). […] Based on the IC50 values of each individual drug, combined drug treatment was designed at constant ratios of two drugs, i.e., equivalent to the ratio of their IC50. Two treatment schedules were used: In one schedule, the cells were exposed to 24 hours of 17-AAG or 17-DMAG. The drug was then added to the cells and incubated for 48 hours. In another schedule, cells were exposed to the drug alone for 24 hours followed by addition of 17-AAG or 17-DMAG for 48 hours. Cell viability was determined by the MTS assay.
(§3) Synergism, additivity or antagonism was determined by median effect analysis using the combination index (CI) calculated using Calcusyn (Biosoft, Cambridge, UK). The combination index is defined as follows: CI=[D]1/[Dx]1+[D]2/[Dx]2
(§4) The quantities [D]1 and [D]2 represent the concentrations of the first and second drug, respectively, that in combination provide a response of x % in the assay. The quantities [Dx]1 and [Dx]2 represent the concentrations of the first and second drug, respectively, that when used alone provide a response of x % in the assay. Values of CI<1, CI=1, and CI>1 indicated drug-drug synergism, additivity, and antagonism respectively (Chou and Talalay 1984). The “enhancing” effect of two drugs can also be determined.
“Pre-administration” refers to the administration of 17-AAG to the cells before the administration of antimitotic; “post-administration” refers to the administration of 17-AAG to the cells after the administration of antimitotic.

[5] = tested on: SKBr-3 cells (human breast cancer cells); assay: MTS cell viability drug combination assay, combination index, SKBr-3; format: cell-based; conditions: CI<1 synergism
Description: as §1, §2, §3, §4

[6] = 17-AAG Post-Administration (antimitotic 24 h, then 17-AAG 48 h)
[7] = 17-AAG Pre-Administration (17-AAG 24 h, then antimitotic 48 h)

Structure (SMILES)	CI value (combination index) of antimitotic with 17-AAG [4, 6]	CI value (combination index) of antimitotic with 17-AAG [4, 7]	CI value (combination index) of antimitotic with 17-AAG [5, 6]	CI value (combination index) of antimitotic with 17-AAG [5, 7]	also measured
C=CCNC1=C2C[C@@H](C)C[C@H](OC)[C@H](O)[C@@H](C)/C=C(\C)[C@H](OC(N)=O)[C@@H](OC)/C=C\C=C(/C)C(=O)NC(=CC1=O)C2=O [17-AAG, 17-allylamino-17-desmethoxygeldanamycin]	–	–	–	–	MTD (maximum tolerated dose) ([1]; daily×5 schedule): about 40 mg/m^2; MTD (maximum tolerated dose) ([1]; once-weekly regimen): about 308 mg/m^2; MTD (maximum tolerated dose) ([1]; twice-weekly regimen): about 220 mg/m^2; sensitization of cells to cytotoxic effects of other drugs (breast cancer cells; cells in culture, Münster et al. 2001): sensitizes cells in culture to the cytotoxic effects of Paclitaxel and doxorubicin; hepatotoxicity [2]: reduced hepatotoxicity
C=CC(=O)Nc1cc2c(Nc3ccc(F)c(Cl)c3)ncnc2cc1OCCCN1CCOCC1 [CI-1033]	–	–	–	–	combination effect on growth, with anti-ErB2 antibody Herceptin [3]: antagonistic effect
CC(=O)O[C@@]12CO[C@@H]1C[C@H](O)[C@@]1(C)C(=O)[C@H](O)C3=C(C)[C@@H](OC(=O)[C@H](O)[C@@H](NC(=O)OC(C)(C)C)c4ccccc4)C[C@@](O)([C@@H](OC(=O)c4ccccc4)[C@H]21)C3(C)C [Docetaxel, docetaxel]	0.29 ± 0.12	0.79 ± 0.15	0.59 ± 0.26	0.53 ± 0.11	–
C/C1=C/C[C@@H](/C(C)=C/c2csc(C)n2)OC(=O)C[C@H](O)C(C)(C)C(=O)[C@H](C)[C@@H](O)[C@@H](C)CCC1 [Epothilone D, epothilone D]	0.61 ± 0.12	0.84 ± 0.06	0.58 ± 0.009	0.72 ± 0.07	–
CC[C@]1(O)C[C@@H]2CN(CCc3c([nH]c4ccccc34)[C@@](C(=O)OC)(c3cc4c(cc3OC)N(C)[C@H]3[C@@](O)(C(=O)OC)[C@H](OC(C)=O)[C@]5(CC)C=CCN6CC[C@]43[C@@H]65)C2)C1 [Vinblastine, vinblastine]	0.38 ± 0.11	0.92 ± 0.3	0.68 ± 0.41	0.39 ± 0.03	–
CC[C@]1(O)C[C@H]2CN(CCc3c([nH]c4ccccc34)[C@@](C(=O)OC)(c3cc4c(cc3OC)N(C=O)[C@H]3[C@@](O)(C(=O)OC)[C@H](OC(C)=O)[C@]5(CC)C=CCN6CC[C@]43[C@@H]65)C2)C1 [Vincristine, vincristine]	0.42 ± 0.08	0.96 ± 0.3	0.99 ± 0.73	0.67 ± 0.37	–
CC[C@]1(O)C[C@@H]2CN(CCc3c([nH]c4ccccc34)[C@@](C(=O)OC)(c3cc4c(cc3OC)N(C)[C@H]3[C@@](O)(C(N)=O)[C@H](O)[C@]5(CC)C=CCN6CC[C@]43[C@@H]65)C2)C1 [Vindesine, vindesine]	0.68 ± 0.08	0.91 ± 0.41	–	–	–
COC1=C2C[C@@H](C)C[C@H](OC)[C@H](O)[C@@H](C)/C=C(\C)[C@H](OC(N)=O)[C@@H](OC)/C=C\C=C(/C)C(=O)NC(=CC1=O)C2=O [geldanamycin, Geldanamycin]	–	–	–	–	combination effect on growth, co-administration with CI-1033 [3]: additive effect; hepatotoxicity [2]: unacceptable hepatotoxicity
CC(=O)O[C@H]1C(=O)[C@@]2(C)[C@H]([C@H](OC(=O)c3ccccc3)[C@]3(O)C[C@H](OC(=O)[C@H](O)[C@@H](NC(=O)c4ccccc4)c4ccccc4)C(C)=C1C3(C)C)[C@]1(OC(C)=O)CO[C@@H]1C[C@@H]2O [paclitaxel]	–	–	–	–	apoptosis, combination with 17-AAG (breast cancer cells; coincident treatment with paclitaxel and 17-AAG, retinoblastoma protein-producing cells): synergistic apoptosis; apoptosis, combination with 17-AAG (breast cancer cells; paclitaxel followed by 17-AAG 4 hours later): synergistic effect similar to coincident treatment; apoptosis, combination with 17-AAG (breast cancer cells; pretreatment with 17-AAG followed by paclitaxel): abrogation of apoptosis
